Reference: patent US12162840B2, “Herbicidal compositions” (SYNGENTA PARTICIPATIONS AG, priority 2018, dated 2024)

Test system: cool season plant species
Assay: B2 Post-emergence efficacy Test 2, cool season plant species
Type: in vivo
Conditions: 15 days after application, 0=no damage, 100=total kill
Procedure: Seeds of a variety of test species (see Table B1) were sown in standard soil in pots. After cultivation for 12 days (post-emergence) under controlled conditions in a glasshouse (at 24/18° C. or 20/16° C., at day/night; 16 hours light; 65% humidity), the plants were sprayed with an aqueous spray solution derived from the formulation of the technical active ingredient dissolved in IF50 (see Table B2 for composition) and adjuvant (Genapol XO80) was added to the spray solution at a rate of 0.2% v/v. [table] [table] After application, the test plants were grown in a glasshouse under controlled conditions (as above) and watered twice daily. Herbicidal activity was evaluated 15 days after application on a 0-100 scale. The results, where 0=no damage to test plant and 100=total kill of test plant are shown below in Tables 6 to 9.

SMILES: Cc1nn(C)c(=O)c(-c2c(F)ccc(Cl)c2CCc2ccc(C#N)cc2)c1O [Compound 1.024]
- Herbicidal activity (0-100 scale) ALOMY (15 g/Ha): 10
- Herbicidal activity (0-100 scale) ALOMY (30 g/Ha): 30
- Herbicidal activity (0-100 scale) ALOMY (60 g/Ha): 50
- Herbicidal activity (0-100 scale) ALOMY (125 g/Ha): 70
- Herbicidal activity (0-100 scale) ALOMY (250 g/Ha): 70
- Herbicidal activity (0-100 scale) ALOMY (500 g/Ha): 70
- Herbicidal activity (0-100 scale) AVEFA (15 g/Ha): 10
- Herbicidal activity (0-100 scale) AVEFA (30 g/Ha): 20
- Herbicidal activity (0-100 scale) AVEFA (60 g/Ha): 30
- Herbicidal activity (0-100 scale) AVEFA (125 g/Ha): 60
- Herbicidal activity (0-100 scale) AVEFA (250 g/Ha): 70
- Herbicidal activity (0-100 scale) AVEFA (500 g/Ha): 80
- Herbicidal activity (0-100 scale) BEAVA (15 g/Ha): 70
- Herbicidal activity (0-100 scale) BEAVA (30 g/Ha): 70
- Herbicidal activity (0-100 scale) BEAVA (60 g/Ha): 80
- Herbicidal activity (0-100 scale) BEAVA (125 g/Ha): 80
- Herbicidal activity (0-100 scale) BEAVA (250 g/Ha): 80
- Herbicidal activity (0-100 scale) BEAVA (500 g/Ha): 100
- Herbicidal activity (0-100 scale) BROTE (15 g/Ha): 0
- Herbicidal activity (0-100 scale) BROTE (30 g/Ha): 0
- Herbicidal activity (0-100 scale) BROTE (60 g/Ha): 10
- Herbicidal activity (0-100 scale) BROTE (125 g/Ha): 20
- Herbicidal activity (0-100 scale) BROTE (250 g/Ha): 40
- Herbicidal activity (0-100 scale) BROTE (500 g/Ha): 70
- Herbicidal activity (0-100 scale) BRSNN (15 g/Ha): 80
- Herbicidal activity (0-100 scale) BRSNN (30 g/Ha): 90
- Herbicidal activity (0-100 scale) BRSNN (60 g/Ha): 90
- Herbicidal activity (0-100 scale) BRSNN (125 g/Ha): 90
- Herbicidal activity (0-100 scale) BRSNN (250 g/Ha): 90
- Herbicidal activity (0-100 scale) BRSNN (500 g/Ha): 90
- Herbicidal activity (0-100 scale) CHEAL (15 g/Ha): 60
- Herbicidal activity (0-100 scale) CHEAL (30 g/Ha): 90
- Herbicidal activity (0-100 scale) CHEAL (60 g/Ha): 90
- Herbicidal activity (0-100 scale) CHEAL (125 g/Ha): 90
- Herbicidal activity (0-100 scale) CHEAL (250 g/Ha): 90
- Herbicidal activity (0-100 scale) CHEAL (500 g/Ha): 100
- Herbicidal activity (0-100 scale) GALAP (30 g/Ha): 20
- Herbicidal activity (0-100 scale) GALAP (60 g/Ha): 20
- Herbicidal activity (0-100 scale) GALAP (125 g/Ha): 60
- Herbicidal activity (0-100 scale) GALAP (250 g/Ha): 90
- Herbicidal activity (0-100 scale) GALAP (500 g/Ha): 90
- Herbicidal activity (0-100 scale) HORVW (15 g/Ha): 0
- Herbicidal activity (0-100 scale) HORVW (30 g/Ha): 10
- Herbicidal activity (0-100 scale) HORVW (60 g/Ha): 10
- Herbicidal activity (0-100 scale) HORVW (125 g/Ha): 10
- Herbicidal activity (0-100 scale) HORVW (250 g/Ha): 10
- Herbicidal activity (0-100 scale) HORVW (500 g/Ha): 20
- Herbicidal activity (0-100 scale) KCHSC (15 g/Ha): 0
- Herbicidal activity (0-100 scale) KCHSC (30 g/Ha): 0
- Herbicidal activity (0-100 scale) KCHSC (60 g/Ha): 0
- Herbicidal activity (0-100 scale) KCHSC (125 g/Ha): 10
- Herbicidal activity (0-100 scale) KCHSC (250 g/Ha): 10
- Herbicidal activity (0-100 scale) KCHSC (500 g/Ha): 20
- Herbicidal activity (0-100 scale) LOLPE (15 g/Ha): 10
- Herbicidal activity (0-100 scale) LOLPE (30 g/Ha): 70
- Herbicidal activity (0-100 scale) LOLPE (60 g/Ha): 70
- Herbicidal activity (0-100 scale) LOLPE (125 g/Ha): 90
- Herbicidal activity (0-100 scale) LOLPE (250 g/Ha): 90
- Herbicidal activity (0-100 scale) LOLPE (500 g/Ha): 90
- Herbicidal activity (0-100 scale) POAAN (15 g/Ha): 10
- Herbicidal activity (0-100 scale) POAAN (30 g/Ha): 20
- Herbicidal activity (0-100 scale) POAAN (60 g/Ha): 30
- Herbicidal activity (0-100 scale) POAAN (125 g/Ha): 80
- Herbicidal activity (0-100 scale) POAAN (250 g/Ha): 80
- Herbicidal activity (0-100 scale) POAAN (500 g/Ha): 90
- Herbicidal activity (0-100 scale) POLCO (15 g/Ha): 80
- Herbicidal activity (0-100 scale) POLCO (60 g/Ha): 90
- Herbicidal activity (0-100 scale) POLCO (125 g/Ha): 90
- Herbicidal activity (0-100 scale) POLCO (250 g/Ha): 90
- Herbicidal activity (0-100 scale) POLCO (500 g/Ha): 100
- Herbicidal activity (0-100 scale) SINAR (15 g/Ha): 80
- Herbicidal activity (0-100 scale) SINAR (30 g/Ha): 80
- Herbicidal activity (0-100 scale) SINAR (60 g/Ha): 80
- Herbicidal activity (0-100 scale) SINAR (250 g/Ha): 90
- Herbicidal activity (0-100 scale) SINAR (500 g/Ha): 100
- Herbicidal activity (0-100 scale) STEME (15 g/Ha): 90
- Herbicidal activity (0-100 scale) STEME (30 g/Ha): 90
- Herbicidal activity (0-100 scale) STEME (60 g/Ha): 90
- Herbicidal activity (0-100 scale) STEME (125 g/Ha): 90
- Herbicidal activity (0-100 scale) STEME (250 g/Ha): 90
- Herbicidal activity (0-100 scale) STEME (500 g/Ha): 100
- Herbicidal activity (0-100 scale) TRZAW (15 g/Ha): 0
- Herbicidal activity (0-100 scale) TRZAW (30 g/Ha): 0
- Herbicidal activity (0-100 scale) TRZAW (60 g/Ha): 20
- Herbicidal activity (0-100 scale) TRZAW (125 g/Ha): 30
- Herbicidal activity (0-100 scale) TRZAW (250 g/Ha): 60
- Herbicidal activity (0-100 scale) TRZAW (500 g/Ha): 70
- Herbicidal activity (0-100 scale) VERPE (15 g/Ha): 80
- Herbicidal activity (0-100 scale) VERPE (30 g/Ha): 80
- Herbicidal activity (0-100 scale) VERPE (60 g/Ha): 90
- Herbicidal activity (0-100 scale) VERPE (125 g/Ha): 80
- Herbicidal activity (0-100 scale) VERPE (250 g/Ha): 100
- Herbicidal activity (0-100 scale) VERPE (500 g/Ha): 100
